For three compounds, IC50 results are on record in patent publication EP1881000A1, “Conjugates of 2-fluoro-2-deoxy-glucose and their uses as anti cancer agents” (INSTITUT NATIONAL DE LA SANTE ET DE LA RECHERCHE MEDICALE …, priority 2006, dated 2008).

Test [1] relates to prostatic adenocarcinoma PC 3. The test is described as follows: In vitro cytotoxicity assay (resazurin reduction test). Type of test: cell-based. Particulars: Homo sapiens; PC3; 48-h continuous drug exposure.
The subject of the next test is tumour cells. The test is described as follows: In vitro cytotoxicity assay, statements over all cell lines of Table 1. The test is classed as cell-based. Particulars: Homo sapiens, PA-1. The text has this: Normal human fibroblasts were purchased from Promocell (Heidelberg, Germany). This frozen culture was obtained from foreskin waste and the cells used in this work were from the seventh to twelfth passage of the culture. M4Beu, a human melanoma cell line, was established in the laboratory of Dr. J. F. Doré (INSERM, Unit 218, Lyon, France) from metastatic biopsy specimens and maintained in cell culture for almost 20 years in our lab. Breast cancer adenocarcinoma MCF 7, prostatic adenocarcinoma PC 3, colon adenocarcinoma DLD-1, lung non-small cell carcinoma A 549, ovary adenocarcinoma PA1 human cell lines and L 929 murine cell line were purchased from the European Collection of Cell Cultures (ECACC; Salisbury, United Kingdom). Murine Melanoma B16 was purchased from American Type of Culture Collection (ATCC, Manassas, USA) and murine colon carcinoma cell line CT-26 was obtained from Dr I. J. Fidler (University of Texas M.D. Anderson Cancer Center, Houston). […]
Resazurin was identified as the Alamar blue dye (O'Brien, J. et al.; European Journal of Biochemistry, 267, 5421-6, (2000)). […] The plates were incubated 1 h at 37° C. in an humidified atmosphere with 5% of CO2 for fluorescence development by living cells. Fluorescence was then measured on the automated 96-well plate reader Fluoroskan Ascent FL™ (Labsystems) using an excitation wavelength of 530 nm and an emission one of 590 nm. […]

Broadly, the IC50 is the concentration needed to halve the response being measured. A high value points to lower potency. Take `CC(=O)OC[C@H]1O[C@@H](NC(=O)CNC(=O)CCCc2ccc(N(CCCl)CCCl)cc2)[C@H](F)[C@@H](OC(C)=O)[C@@H]1OC(C)=O` [Compound 21a, N-[2-(3,4,6-tri-O-acetyl-2-deoxy-2-fluoro-β-D-glucopyranosylamino)-2-oxoethyl]-4-{4-[bis(2-chloroethyl)amino]phenyl}butanamide]: the IC50 in test [1] is 10 ± 2 µM.

For the compound `CC(=O)OC[C@H]1O[C@@H](Oc2ccc(NC(=O)CNC(=O)CCCc3ccc(N(CCCl)CCCl)cc3)cc2)[C@H](F)[C@@H](OC(C)=O)[C@@H]1OC(C)=O` [Compound 40a, N-{2-[4-(3,4,6-tri-O-acetyl-2-deoxy-2-fluoro-β-D-glucopyranosyloxy)phenyl]amino-2-oxoethyl}-4-{4-[bis(2-chloroethyl)amino]phenyl}butanamide], in test [1], the IC50 was 7 ± 2 µM.

As to `O=C(O)CCCc1ccc(N(CCCl)CCCl)cc1` [chlorambucil, reference compound], the IC50 in the test with tumour cells is > 40 µM.
